Test results published in ChEMBL document CHEMBL3507680, “University of Dundee, Gates Library screen for HepG2 cell viability”.

Assay: Human HepG2 cell viability assay in 384 well format
Assay type: toxicity, cell-based
Set-up: dose 125 nL, time 70.5 hour; concentration not given beside the values
Conditions: HepG2 cells, read-out: Inhibition

Fc1ccc(C2CCCN2Cc2nc(Cc3ccccc3F)no2)cc1 (stereo unspecified)
cytotoxicity at 70.5 h: 0.991%

COCCN(C)C[C@@H]1CN(C(=O)c2ccc(SC)cc2)C[C@@H]1CO
cytotoxicity at 70.5 h: 12.6%

CC(C)N1CCC(CC(=O)NC(C(=O)O)c2cc(F)ccc2F)CC1 (stereo unspecified)
cytotoxicity at 70.5 h: -16.6%

COc1ccccc1OC1CN(C(=O)CN(C)Cc2ccncc2)C1
cytotoxicity at 70.5 h: -14.2%

CSCc1noc(-c2nc3c([nH]2)CCCNC3=O)n1
cytotoxicity at 70.5 h: -4.67%

CN1[C@H]2CC[C@@H]1CN(C(=O)c1nnc3n1CCCC3)CC2
cytotoxicity at 70.5 h: 12.6%

CCOC(=O)c1coc(N2CCN(Cc3cc(C)cc(C)c3)C(=O)C2)n1
cytotoxicity at 70.5 h: -5.18%

CN(Cc1cc(-c2cccnc2)no1)C(=O)[C@@H]1CSCN1C
cytotoxicity at 70.5 h: -8.97%

O=C(c1cccc(Cl)c1)C1CCCN(c2nnc(C3CCC3)o2)C1 (stereo unspecified)
cytotoxicity at 70.5 h: 5.93%

Cc1csc(CN(C)CCOc2ccccc2)n1
cytotoxicity at 70.5 h: 20.8%

Cc1ccccc1CN(CCN(C)C)Cc1ncc[nH]1
cytotoxicity at 70.5 h: -7.18%

Cc1ncsc1CCC(=O)NCc1cc2n(n1)CCNC2
cytotoxicity at 70.5 h: -8.17%

CC(C)Oc1cc(N2CCC3(CC2)[C@H](O)C[C@@H]3O)nc(N)n1
cytotoxicity at 70.5 h: -1.26%

CN1CCC(c2nnc(CN3CCCCC3)n2C)CC1
cytotoxicity at 70.5 h: -9.09%

Cc1nc(C)n(CC(C)C(=O)N2CCC(N3CCC(O)CC3)CC2)n1 (stereo unspecified)
cytotoxicity at 70.5 h: -3.14%

CC(=O)c1cc(CN2C[C@@H](NS(=O)(=O)N(C)C)[C@H](C(C)C)C2)cs1
cytotoxicity at 70.5 h: 7.82%

CCc1cc(NCC(O)CN2CCCCC2)ncn1 (stereo unspecified)
cytotoxicity at 70.5 h: -4.61%

Nc1nc(CNc2nccc(CCC(F)(F)F)n2)cs1
cytotoxicity at 70.5 h: -7.96%

N[C@@H]1CCN(Cc2ccc(-c3nc(-c4cccnc4)cc(=O)[nH]3)cc2)C1
cytotoxicity at 70.5 h: -10.8%

O=C(c1cnn2ccccc12)N1CCCC(OCc2ccccn2)C1 (stereo unspecified)
cytotoxicity at 70.5 h: -6.94%

Cc1cc2nc(C(C)C)cc(N(C)CC3CCCN3C)n2n1 (stereo unspecified)
cytotoxicity at 70.5 h: -10.7%

CNc1ccnc(N2C[C@@H](C)[C@](O)(C3CC3)C2)n1
cytotoxicity at 70.5 h: -3.1%

Cn1cnnc1CN1CCC2(CCCN(C3CCCC3)C2=O)C1 (stereo unspecified)
cytotoxicity at 70.5 h: 1.29%

CCN(C)C(=O)[C@H]1C[C@@](CC(C)C)(C(=O)OC)N(C)[C@H]1c1cccnc1
cytotoxicity at 70.5 h: -3.05%

COCCC1(CO)CCCN(Cc2ccc(C(F)(F)F)nc2)C1 (stereo unspecified)
cytotoxicity at 70.5 h: -1.12%

CSC(C)CCN1CCCn2nc(CNC(=O)C3CCC3)cc2C1 (stereo unspecified)
cytotoxicity at 70.5 h: 0.861%

CC(c1nccs1)n1cc(-c2cc(CN3CCCCC3)cs2)nn1 (stereo unspecified)
cytotoxicity at 70.5 h: -4.83%

O=C(CCN1CCCO1)NC1CCCN(CC2CCCCC2)C1 (stereo unspecified)
cytotoxicity at 70.5 h: -2.41%

O=C(O)c1ccccc1C1CCN(Cc2ccc(-c3cc[nH]n3)o2)C1 (stereo unspecified)
cytotoxicity at 70.5 h: -2.33%

Cc1cc(C[C@@H]2COC[C@@H]2NC(=O)CNC(=O)N(C)C)on1
cytotoxicity at 70.5 h: 9.05%

COc1ccc(C(=O)C2CCCN(c3cc(N)ncn3)C2)c(C)c1 (stereo unspecified)
cytotoxicity at 70.5 h: -10.4%

CSCCC(O)C(=O)N1CCN(Cc2cccc(Cl)c2)CC1 (stereo unspecified)
cytotoxicity at 70.5 h: -12.9%

CN(Cc1cc(-c2ccccc2)no1)C(=O)CNS(C)(=O)=O
cytotoxicity at 70.5 h: 23.3%

OC1(CNCCCN2CCCc3ccccc32)CNCCOC1 (stereo unspecified)
cytotoxicity at 70.5 h: -13%

CN(C)CC(=O)NC1CC(=O)N(CCc2ccccc2)C1 (stereo unspecified)
cytotoxicity at 70.5 h: -4.7%

COCCn1cncc1CN1CCCC(C(=O)Cc2ccccc2)C1 (stereo unspecified)
cytotoxicity at 70.5 h: 0.198%

CC(C)(C)c1nc(CN(Cc2cccnc2)C2CN3CCC2CC3)no1 (stereo unspecified)
cytotoxicity at 70.5 h: -1.01%

COCCN1C[C@H]2CC[C@@H]1CN(Cc1ccc3ccccc3n1)C2
cytotoxicity at 70.5 h: -5.95%

CN(Cc1ccccc1)c1cnn(CC2COCCO2)c(=O)c1 (stereo unspecified)
cytotoxicity at 70.5 h: -2.99%

O=C(O)C(c1ccc2c(c1)OCCO2)N1CCSCC1 (stereo unspecified)
cytotoxicity at 70.5 h: -3.24%

CNc1nc(C)c(C(=O)N2CCCCC2CCc2ccc(O)cc2)s1 (stereo unspecified)
cytotoxicity at 70.5 h: -8.49%

CC(C)Oc1ccc2c(NC(=O)CNC(N)=O)nn(CC(F)(F)F)c2c1
cytotoxicity at 70.5 h: 3.1%

COc1ccccc1OC1(C(=O)O)CCN(c2ccccn2)CC1
cytotoxicity at 70.5 h: 1.96%

Cc1cccc2sc(NC(=O)CN3CCCC4(CC3)CNC(=O)O4)nc12 (stereo unspecified)
cytotoxicity at 70.5 h: -7.84%

CCn1c(C2CCCNC2)nn(CCn2cncn2)c1=O (stereo unspecified)
cytotoxicity at 70.5 h: -8.3%

CCN(C)C[C@@H]1CN(Cc2cccc(Cl)c2)C[C@@H]1CO
cytotoxicity at 70.5 h: -11.5%

CC(C)c1nccc(C2(c3ccccc3Cl)CCNCC2)n1
cytotoxicity at 70.5 h: 10.5%

CCn1c(C)nnc1SCCNC(=O)c1cnc(C(C)(C)C)nc1O
cytotoxicity at 70.5 h: 14.5%

COCCn1cnnc1CNc1cc(C)nc2c(C)c(C)nn12
cytotoxicity at 70.5 h: -5.61%

Cc1noc(C)c1C1CCCN1C(=O)c1cn2ccsc2n1 (stereo unspecified)
cytotoxicity at 70.5 h: -3.13%

CCCSc1nc(O)c(CC)c(=O)n1-c1ccccc1
cytotoxicity at 70.5 h: -6.46%

CC[C@H]1COCCN1C(=O)c1cnc(-c2ccccc2)nc1C
cytotoxicity at 70.5 h: -5.37%

Cc1cccc(C(=O)N2CC(=O)N(c3ccccc3Cl)CC2C)n1 (stereo unspecified)
cytotoxicity at 70.5 h: 49.8%

c1cncc(NCCNC2CSCCSC2)c1
cytotoxicity at 70.5 h: 5.88%

O=c1c2ccccc2cnn1Cc1cncn1C1CC1
cytotoxicity at 70.5 h: -6.14%

Cn1ccnc1SCCNc1ccnc(C(F)(F)F)n1
cytotoxicity at 70.5 h: -2.76%

Cc1nnc(CN(C)C2CCN(c3cccc(-c4cscn4)c3)CC2)o1
cytotoxicity at 70.5 h: -3.22%

O=C1[C@@H]2CN(c3ncnc4sccc34)C[C@]2(C(=O)O)CN1CC1CC1
cytotoxicity at 70.5 h: -11.3%

Cc1nn(C)cc1-c1ccnc(N(C)Cc2cccs2)n1
cytotoxicity at 70.5 h: 2.52%

CCC[C@H]1CN(S(C)(=O)=O)C[C@@H]1NC(=O)CCOCC
cytotoxicity at 70.5 h: -2.88%

CN1CCCN(c2nc(C3CCCC3)nc3c2cnn3C)CC1
cytotoxicity at 70.5 h: 14.5%

CC(Nc1nccc(CCC(F)(F)F)n1)c1nc(-c2ccncc2)no1 (stereo unspecified)
cytotoxicity at 70.5 h: -13.3%

CN1C(=O)C2(CCCN(C(=O)c3ccc(=O)n(C)n3)C2)c2ccccc21 (stereo unspecified)
cytotoxicity at 70.5 h: 0.808%

CC(=O)N1CCCC(C(=O)N2Cc3nc(C)n(C)c(=O)c3C2)C1 (stereo unspecified)
cytotoxicity at 70.5 h: -3.08%

Cn1cc(CN2CCC[C@]3(C(=O)O)CN(c4cnccn4)CC[C@@H]23)cn1
cytotoxicity at 70.5 h: -2.41%

CN(Cc1cccc(-n2cccn2)c1)Cc1cccs1
cytotoxicity at 70.5 h: -11%

COCc1c(C(=O)N2CCCC(C(=O)c3nccn3C)C2)noc1C (stereo unspecified)
cytotoxicity at 70.5 h: -1.47%

CCc1nc(C)sc1CNC1CCN(Cc2ccccc2)C1 (stereo unspecified)
cytotoxicity at 70.5 h: 8.22%

CC[C@H]1CN(C(=O)c2cnc(N3CCN(C)CC3)nc2C)CC[C@@]1(C)O
cytotoxicity at 70.5 h: -7.86%

COc1ccc(C(=O)C2CCCN(Cc3ccncc3)C2)cc1OC (stereo unspecified)
cytotoxicity at 70.5 h: -3.65%

Cc1nnsc1C(=O)N1CCN(CC2CC2)[C@@H]2CS(=O)(=O)C[C@@H]21
cytotoxicity at 70.5 h: -13.8%

O=C(NC1CC1)C1CNCCN1C(=O)COc1ccc2c(c1)OCO2 (stereo unspecified)
cytotoxicity at 70.5 h: -5.08%

CN(CCCc1cnn(C)c1)C(=O)C1CCN(C(=O)C2CCC2)CC1
cytotoxicity at 70.5 h: -10.7%

CCC(CC)NCC(C)Oc1cccnc1 (stereo unspecified)
cytotoxicity at 70.5 h: -2.86%

CN1CC=C(CCN(C)C(=O)CCc2ccccc2)CC1
cytotoxicity at 70.5 h: -6.34%

Cc1cccc(SC2CCN(C(=O)CCCS(N)(=O)=O)CC2)c1
cytotoxicity at 70.5 h: -6.67%

Cc1cncc(C(=O)N2CCN(c3cnn(C)c(=O)c3)CC2)c1
cytotoxicity at 70.5 h: -6.5%

CC1=C(CCN2CCCC(O)C2)C(C)(C)CCC1 (stereo unspecified)
cytotoxicity at 70.5 h: 18.9%

CSc1cccc(CN2CCn3nc(CNC(C)=O)cc3C2)c1
cytotoxicity at 70.5 h: 5.2%

COc1c(F)cc(F)cc1-c1nc2c([nH]1)CCNC2
cytotoxicity at 70.5 h: 14.9%

Cc1ccc2occ(CN3CCN(c4ncccn4)CC3)c(=O)c2c1
cytotoxicity at 70.5 h: 29.4%
